Test results taken from US8513232B2, “Substituted spirocyclic piperidine derivatives as histamine-3 (H3) receptor ligands” (Cephalon, Inc., priority 2008, dated 2013).
Read-outs that look alike come from different tables or passages of the source.

Columns and labels:
[1] = target: T1, rat histamine H3 receptor (Rattus norvegicus, UniProt Q9QYN8); test: Rat H3 radioligand binding ([3H]-N-alpha-methylhistamine, SPA)
T1 construct: encoding the entire 445-amino-acid rat histamine H3 receptor; expressed in transfected cells; membrane preparation
T1 sequence (Q9QYN8 whole entry): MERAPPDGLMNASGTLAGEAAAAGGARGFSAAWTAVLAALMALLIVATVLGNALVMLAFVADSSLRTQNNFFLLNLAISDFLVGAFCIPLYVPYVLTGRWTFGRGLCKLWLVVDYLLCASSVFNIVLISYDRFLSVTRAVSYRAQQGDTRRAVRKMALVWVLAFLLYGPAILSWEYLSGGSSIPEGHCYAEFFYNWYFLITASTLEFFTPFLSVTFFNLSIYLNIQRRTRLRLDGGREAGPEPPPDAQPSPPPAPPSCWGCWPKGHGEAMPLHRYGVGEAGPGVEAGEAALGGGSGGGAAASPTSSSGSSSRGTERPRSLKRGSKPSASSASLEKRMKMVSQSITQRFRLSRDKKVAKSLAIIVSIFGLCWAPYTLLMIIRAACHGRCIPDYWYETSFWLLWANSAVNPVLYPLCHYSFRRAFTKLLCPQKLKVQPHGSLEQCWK
Procedure, shortened: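 SPA-bead binding assay using [3H]-N-alpha-methylhistamine (approximately 1 nM final) with test compounds from 0.01 nM to 30 μM. Rat H3 receptor membranes came from stably transfected CHO-A3 cells; incubation ran 4 h at room temperature, in the dark, in Tris pH 7.4 buffer with MgCl2 and BSA. Clobenpropit (10 μM) gave non-specific binding.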

human H3 receptor = target: T2, human H3 receptor (Homo sapiens, UniProt Q9Y5N1); test: Human H3 radioligand binding ([3H]-N-alpha-methylhistamine, SPA)
T2 construct: expressed in transfected cells
T2 sequence (Q9Y5N1 whole entry): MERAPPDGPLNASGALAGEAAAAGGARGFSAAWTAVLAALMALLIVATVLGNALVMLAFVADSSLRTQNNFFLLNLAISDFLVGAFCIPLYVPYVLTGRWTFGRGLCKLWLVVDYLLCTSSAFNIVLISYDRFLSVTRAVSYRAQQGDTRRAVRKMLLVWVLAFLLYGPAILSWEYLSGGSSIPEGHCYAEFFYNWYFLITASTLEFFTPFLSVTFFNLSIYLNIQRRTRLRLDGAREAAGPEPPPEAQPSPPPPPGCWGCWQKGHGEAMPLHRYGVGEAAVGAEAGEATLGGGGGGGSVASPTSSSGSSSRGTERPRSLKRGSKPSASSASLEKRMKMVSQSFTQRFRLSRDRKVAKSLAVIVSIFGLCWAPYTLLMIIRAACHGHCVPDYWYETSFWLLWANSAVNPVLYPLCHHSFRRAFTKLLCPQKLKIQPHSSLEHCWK
Procedure, shortened: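 Compounds (0.01 nM-30 μM) competed with approximately 1 nM [3H]-N-alpha-methylhistamine for human H3 receptor in membranes of stably transfected CHO cells, 10 μg protein per well, in Tris-HCl pH 7.4/MgCl2/BSA buffer for 4 h at room temperature. Bound radioligand measured by scintillation proximity; 10 μM clobenpropit gave non-specific binding.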

[2] = Rat H3 binding, Table B, Examples 136-362, read-out: rat H3 binding Ki
[3] = Human H3 binding, Table B, Examples 136-362, read-out: hum H3 binding Ki
[4] = Table C, rat H3 binding, read-out: Rat H3 Ki
[5] = Table C, human H3 binding, read-out: Human H3 Ki
[6] = rat H3 binding, Table D, read-out: Rat H3 Ki
[7] = human H3 binding, Table D, read-out: Human H3 Ki
[8] = Table A, rat H3 binding, read-out: Rat Ki
[9] = Table A, human H3 binding, read-out: Human Ki

## N#Cc1ccc(C(=O)Nc2ccc3c(c2)CCC2(CCN(C4CCC4)CC2)O3)cc1 [Example 224]
[1]; [2]
  Ki: < 200 nM
other
  melting point: 186 to 188 °C
Human H3 receptor; [3]
  Ki: < 200 nM

## CCS(=O)(=O)N1CCC(Oc2ccc3c(c2)CCC2(CCN(C4CCC4)CC2)O3)CC1 [Example 441]
[1]; [4]
  Ki: < 200 nM
other
  melting point: 226 to 229 °C
Human H3 receptor; [5]
  Ki: < 200 nM

## O=C(Nc1ccc(Cl)cc1)Nc1ccc2c(c1)COC1(CCN(C3CCC3)CC1)O2 [Example 184]
[1]; [2]
  Ki: 200 to 1000 nM
other
  melting point: 201 to 203 °C
Human H3 receptor; [3]
  Ki: < 200 nM

## c1cc2c(cc1N1CCCC1)CCC1(CCN(C3CCC3)CC1)O2 [Example 420]
[1]; [4]
  Ki: < 200 nM
other
  melting point: > 275 °C (dec.)
Human H3 receptor; [5]
  Ki: < 200 nM

## CCN(CC)C(=O)N1CCN(c2ccc3c(c2)COC2(CCN(C4CCC4)CC2)O3)CC1 [Example 351]
[1]; [2]
  Ki: < 200 nM
other
  melting point: 113 to 116.1 °C
Human H3 receptor; [3]
  Ki: < 200 nM

## O=C(NC[C@H]1CCCO1)c1ccc(-c2ccc3c(c2)COC2(CCN(C4CCC4)CC2)O3)cc1Cl [Example 579]
[1]; [6]
  Ki: < 200 nM
other
  melting point: 155 to 157 °C
Human H3 receptor; [7]
  Ki: < 200 nM

## c1cc2c(cc1C1CCOCC1)COC1(CCN(C3CCC3)CC1)O2 [Example 479]
[1]; read-out: Rat H3 kI
  Ki: < 200 nM
other
  melting point: 249 to 251 °C
Human H3 receptor; read-out: Human H3 Ki
  Ki: < 200 nM

## c1cc(-c2ccc3c(c2)CCC2(CCN(C4CCC4)CC2)O3)ccc1C1=NCCO1 [Example 158]
[1]; [2]
  Ki: < 200 nM
other
  melting point: 213 to 215 °C
Human H3 receptor; [3]
  Ki: < 200 nM

## O=S(=O)(c1ccc(-c2ccc3c(c2)COC2(CCN(C4CCC4)CC2)O3)cc1)N1CCCCC1 [Example 37]
[1]; [8]
  Ki: < 200 nM
other
  melting point: 85 to 90 °C
Human H3 receptor; [9]
  Ki: < 200 nM

## Cc1c(-c2ccc3c(c2)COC2(CCN(C4CCC4)CC2)O3)cn(C(C)C)c(=O)c1C [Example 776]
[1]; [6]
  Ki: < 200 nM
other
  melting point: 89 to 92 °C
Human H3 receptor; [7]
  Ki: < 200 nM

## Nc1ccc(-c2ccc3c(c2)COC2(CCN(C4CCC4)CC2)O3)cn1 [Example 566]
[1]; read-out: Rat H3 kI
  Ki: < 200 nM
other
  melting point: 201 to 203 °C
Human H3 receptor; read-out: Human H3 Ki
  Ki: < 200 nM

## Cc1cc(=O)n(C(C)C)cc1-c1ccc2c(c1)COC1(CCN(C3CCC3)CC1)O2 [Example 759]
[1]; [6]
  Ki: < 200 nM
other
  melting point: 65 to 68 °C
Human H3 receptor; [7]
  Ki: < 200 nM

## O=C(NCCO)c1ccc(-c2ccc3c(c2)COC2(CCN(C4CCC4)CC2)O3)cc1 [Example 50]
[1]; [8]
  Ki: < 200 nM
other
  melting point: 185 to 187 °C
Human H3 receptor; [9]
  Ki: < 200 nM

## COc1ccc(-c2ccc3c(c2)COC2(CCN(C4CC(C(=O)O)C4)CC2)O3)cn1 (stereo not drawn) [Example 734]
[1]; [6]
  Ki: > 1000 nM
other
  melting point: 260 to 262 °C
Human H3 receptor; [7]
  Ki: > 1000 nM

## CC(=O)OC1(c2ccc3c(c2)COC2(CCN(C4CCC4)CC2)O3)CC(C(=O)N2CCCC2)C1 (stereo not drawn) [Example 541]
[1]; read-out: Rat H3 kI
  Ki: < 200 nM
other
  melting point: 72 to 74 °C
Human H3 receptor; read-out: Human H3 Ki
  Ki: < 200 nM

## COCCNC(=O)C1CCCN(c2ccc3c(c2)COC2(CCN(C4CCC4)CC2)O3)C1 (stereo not drawn) [Example 613]
[1]; [6]
  Ki: < 200 nM
other
  melting point: 55.4 to 57.3 °C
Human H3 receptor; [7]
  Ki: < 200 nM

## O=C(NC1CCOCC1)c1ccc(COc2ccc3c(c2)CCC2(CCN(C4CCC4)CC2)O3)cc1 [Example 647]
[1]; [6]
  Ki: < 200 nM
other
  melting point: 174 to 176 °C
Human H3 receptor; [7]
  Ki: < 200 nM

## c1cc2c(cc1C1CCSCC1)COC1(CCN(C3CCC3)CC1)O2 [Example 480]
[1]; read-out: Rat H3 kI
  Ki: < 200 nM
other
  melting point: 153 to 155 °C
Human H3 receptor; read-out: Human H3 Ki
  Ki: < 200 nM

## O=C(c1ccc(Nc2ccc3c(c2)COC2(CCN(C4CCC4)CC2)O3)cc1)N1CC[C@@H](O)C1 [Example 215]
[1]; [2]
  Ki: < 200 nM
other
  melting point: 114 to 116 °C
Human H3 receptor; [3]
  Ki: < 200 nM

## c1cnc(N2CCN(c3ccc4c(c3)CCC3(CCN(C5CCC5)CC3)O4)CC2)nc1 [Example 369]
[1]; [4]
  Ki: < 200 nM
other
  melting point: 156 to 157 °C
Human H3 receptor; [5]
  Ki: < 200 nM

## CNC(=O)C1CC(O)(c2ccc3c(c2)COC2(CCN(C4CCC4)CC2)O3)C1 (stereo not drawn) [Example 494]
[1]; read-out: Rat H3 kI
  Ki: < 200 nM
other
  melting point: 246 to 248 °C
Human H3 receptor; read-out: Human H3 Ki
  Ki: < 200 nM

## O=S1(=O)CCC(C(O)c2ccc3c(c2)COC2(CCN(C4CCC4)CC2)O3)CC1 (stereo not drawn) [Example 511]
[1]; read-out: Rat H3 kI
  Ki: < 200 nM
other
  melting point: 127 to 129 °C
Human H3 receptor; read-out: Human H3 Ki
  Ki: < 200 nM

## c1ccc(COc2ccc(-c3ccc4c(c3)COC3(CCN(C5CCC5)CC3)O4)cn2)cc1 [Example 529]
[1]; read-out: Rat H3 kI
  Ki: 200 to 1000 nM
other
  melting point: 139 to 141 °C
Human H3 receptor; read-out: Human H3 Ki
  Ki: < 200 nM

## CS(=O)(=O)c1ccc(-c2ccc3c(c2)COC2(CCN(C4CCC4)CC2)O3)cc1Cl [Example 622]
[1]; [6]
  Ki: < 200 nM
other
  melting point: 198 to 201 °C
Human H3 receptor; [7]
  Ki: < 200 nM

## c1cc2c(cc1O[C@@H]1CCOC1)CCC1(CCN(C3CCC3)CC1)O2 [Example 443]
[1]; [4]
  Ki: 200 to 1000 nM
other
  melting point: 261 to 263 °C
Human H3 receptor; [5]
  Ki: < 200 nM

## Cn1nccc1-c1ccc2c(c1)COC1(CCN(C3CCC3)CC1)O2 [Example 740]
[1]; [6]
  Ki: < 200 nM
other
  melting point: 107 to 109 °C
Human H3 receptor; [7]
  Ki: < 200 nM

## COCCNC(=O)c1ccc(-c2ccc3c(c2)COC2(CCN(C4CCC4)CC2)O3)cc1 [Example 26]
[1]; [8]
  Ki: < 200 nM
other
  melting point: 145 to 147 °C
Human H3 receptor; [9]
  Ki: < 200 nM

## CC(C)NC(=O)N1CCN(c2ccc3c(c2)COC2(CCN(C4CCC4)CC2)O3)CC1 [Example 279]
[1]; [2]
  Ki: < 200 nM
other
  melting point: 206.5 to 207.5 °C
Human H3 receptor; [3]
  Ki: < 200 nM

## CC(C)NC(=O)c1ccc(-c2ccc3c(c2)COC2(CCN(C4CCC4)CC2)O3)cc1F [Example 356]
[1]; [2]
  Ki: < 200 nM
other
  melting point: 146.5 to 148 °C
Human H3 receptor; [3]
  Ki: < 200 nM

## CN(C)C(=O)c1ccc(Nc2ccc3c(c2)COC2(CCN(C4CCC4)CC2)O3)cc1 [Example 169]
[1]; [2]
  Ki: < 200 nM
other
  melting point: 66 to 74 °C
Human H3 receptor; [3]
  Ki: < 200 nM

## O=C(c1ccc(-c2ccc3c(c2)CCC2(CCN(C4CCC4)CC2)O3)cc1)N1CCC(O)CC1 [Example 206]
[1]; [2]
  Ki: < 200 nM
other
  melting point: 90.4 to 92.6 °C
Human H3 receptor; [3]
  Ki: < 200 nM

## CN(C)C(=O)c1ccc(Oc2ccc3c(c2)CCC2(CCN(C4CCC4)CC2)O3)nc1 [Example 407]
[1]; [4]
  Ki: 200 to 1000 nM
other
  melting point: 267 to 269 °C
Human H3 receptor; [5]
  Ki: < 200 nM

## CNC(=O)c1ccc(N2CCN(c3ccc4c(c3)CCC3(CCN(C5CCC5)CC3)O4)CC2)nc1 [Example 409]
[1]; [4]
  Ki: < 200 nM
other
  melting point: 297 to 299 °C
Human H3 receptor; [5]
  Ki: < 200 nM

## COCCNC(=O)c1ccc(-c2cc3c(cc2Cl)OC2(CCN(C4CCC4)CC2)OC3)cc1 [Example 264]
[1]; [2]
  Ki: 200 to 1000 nM
other
  melting point: 49 to 51 °C
Human H3 receptor; [3]
  Ki: < 200 nM

## COc1cc(C)c(-c2ccc3c(c2)CCC2(CCN(C4CCC4)CC2)O3)cn1 [Example 769]
[1]; [6]
  Ki: < 200 nM
other
  melting point: 127 to 128 °C
Human H3 receptor; [7]
  Ki: < 200 nM

## O=c1ccc(Cc2ccc3c(c2)COC2(CCN(C4CCC4)CC2)O3)c[nH]1 [Example 527]
[1]; read-out: Rat H3 kI
  Ki: < 200 nM
other
  melting point: 194 to 196 °C
Human H3 receptor; read-out: Human H3 Ki
  Ki: < 200 nM

## O=C(N1CCOCC1)N1CCN(c2ccc3c(c2)CCC2(CCN(C4CCC4)CC2)O3)CC1 [Example 386]
[1]; [4]
  Ki: < 200 nM
other
  melting point: 292 to 294 °C
Human H3 receptor; [5]
  Ki: < 200 nM

## COc1cc(-c2ccc3c(c2)COC2(CCN(C4CCC4)CC2)O3)ccc1C(=O)O [Example 624]
[1]; [6]
  Ki: 200 to 1000 nM
other
  melting point: 173 to 175 °C
Human H3 receptor; [7]
  Ki: < 200 nM

## O=c1ccc(-c2ccc3c(c2)COC2(CCN(C4CCC4)CC2)O3)c[nH]1 [Example 168]
[1]; [2]
  Ki: < 200 nM
other
  melting point: 145 to 147 °C
Human H3 receptor; [3]
  Ki: < 200 nM

## c1cc2c(cc1OC1CCOCC1)CCC1(CCN(C3CCC3)CC1)O2 [Example 433]
[1]; [4]
  Ki: < 200 nM
other
  melting point: 252 to 254 °C
Human H3 receptor; [5]
  Ki: < 200 nM
